Here are results for 16 compounds from US20170369444A1, “INHIBITORS OF HISTONE DEMETHYLASES” (Gilead Sciences, Inc., priority 2014, published 2017).

Structures are written as SMILES. Bounds are passed on as bounds.

Common to all, as to type: biochemical
One assay addresses T1, KDM2B (FBXL10) (Homo sapiens, UniProt Q8NHM5).
T1 construct: 1-650; purchased BPS Bioscience, US; host or cells: Bac (baculovirus/insect cells)
T1 sequence (Q8NHM5 1-650): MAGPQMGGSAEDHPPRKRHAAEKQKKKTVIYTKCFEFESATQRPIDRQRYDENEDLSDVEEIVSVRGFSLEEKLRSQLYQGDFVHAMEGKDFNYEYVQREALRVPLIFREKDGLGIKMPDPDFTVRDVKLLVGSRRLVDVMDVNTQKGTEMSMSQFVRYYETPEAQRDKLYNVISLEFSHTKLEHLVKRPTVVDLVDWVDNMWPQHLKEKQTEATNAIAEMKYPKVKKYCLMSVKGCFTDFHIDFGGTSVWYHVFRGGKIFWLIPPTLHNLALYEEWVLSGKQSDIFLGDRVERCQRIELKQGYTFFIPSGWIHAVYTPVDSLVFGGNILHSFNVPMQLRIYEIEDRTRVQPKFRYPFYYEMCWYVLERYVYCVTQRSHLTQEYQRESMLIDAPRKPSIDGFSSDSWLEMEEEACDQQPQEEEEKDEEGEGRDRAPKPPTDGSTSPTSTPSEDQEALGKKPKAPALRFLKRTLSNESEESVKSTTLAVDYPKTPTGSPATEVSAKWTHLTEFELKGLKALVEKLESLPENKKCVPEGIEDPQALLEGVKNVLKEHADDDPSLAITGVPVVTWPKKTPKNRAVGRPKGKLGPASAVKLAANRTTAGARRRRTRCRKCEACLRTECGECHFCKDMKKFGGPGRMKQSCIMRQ
Description: Histone lysine demethylase AlphaLISA assay, KDM2B. As to conditions: in vitro enzyme, read-out: KDM2B IC50 (HDME Inhibition). (Alpha assays give light when donor and acceptor beads are brought close together.)

Another assay addresses T2, KDM4C (JMJD2C) (Homo sapiens, UniProt Q9H3R0).
T2 construct: 1-349; host or cells: E. coli
T2 sequence (Q9H3R0 1-349): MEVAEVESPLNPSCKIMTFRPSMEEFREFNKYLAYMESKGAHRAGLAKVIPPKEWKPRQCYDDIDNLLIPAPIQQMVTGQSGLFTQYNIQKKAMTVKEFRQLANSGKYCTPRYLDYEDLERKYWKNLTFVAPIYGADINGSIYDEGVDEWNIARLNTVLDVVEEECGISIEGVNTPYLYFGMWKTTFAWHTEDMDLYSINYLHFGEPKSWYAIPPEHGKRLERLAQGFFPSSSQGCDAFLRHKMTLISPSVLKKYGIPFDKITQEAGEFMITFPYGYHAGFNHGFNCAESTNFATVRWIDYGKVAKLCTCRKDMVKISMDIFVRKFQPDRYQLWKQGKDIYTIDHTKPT
In words: Histone lysine demethylase AlphaLISA assay, KDM4C. As to conditions: in vitro enzyme, read-out: KDM4C IC50 (HDME Inhibition). The protocol:
Histone lysine demethylase AlphaLISA assays are performed to determine IC50 values. […] Assays are performed analogously to the protocol described by PerkinElmer (Roy et al. PerkinElmer Technical Note: AlphaLISA #12, April 2011).
Assays are performed analogously to the protocol described by PerkinElmer (Roy et al. PerkinElmer Technical Note: AlphaLISA #12, April 2011).
Enzymes (final assay concentration 0.1-2.5 nM) are dissolved in enzyme buffer and incubated for 10 min before 5 μL is added to 5 μL 3% DMSO solutions of compounds in enzyme buffer, incubated for another 10 minutes, before 5 μL substrate solution is added and the reaction mixture is incubated at room temperature. 10 μL acceptor beads, suspended Epigenetic Buffer (Perkin Elmer AL008) from stock, are added and the suspension is incubated in the dark at room temperature, before 10 μL suspension of streptavidin donor beads (Perkin Elmer 6760002) in Epigenetic Buffer is added. After incubation at room temperature in the dark the plates are read.
Substrate solution: Substrate (final assay concentration 50-200 nM), 50 mM Hepes (pH 7.4-8.0), 0.003% Tween-20, 0.1% BS, 25 μM L-Asc, 10 μM α-KG. Enzyme Buffer: 50 mM Hepes (pH 7.4-8.0), 0.003% Tween-20, 0.1% BSA; 5 μM (NH4)2Fe(SO4)2

The target of the next assay is T3, KDM5B (PLU-1) (Homo sapiens, UniProt Q9UGL1).
T3 construct: 1-809; host or cells: E. coli
T3 sequence (Q9UGL1 1-809): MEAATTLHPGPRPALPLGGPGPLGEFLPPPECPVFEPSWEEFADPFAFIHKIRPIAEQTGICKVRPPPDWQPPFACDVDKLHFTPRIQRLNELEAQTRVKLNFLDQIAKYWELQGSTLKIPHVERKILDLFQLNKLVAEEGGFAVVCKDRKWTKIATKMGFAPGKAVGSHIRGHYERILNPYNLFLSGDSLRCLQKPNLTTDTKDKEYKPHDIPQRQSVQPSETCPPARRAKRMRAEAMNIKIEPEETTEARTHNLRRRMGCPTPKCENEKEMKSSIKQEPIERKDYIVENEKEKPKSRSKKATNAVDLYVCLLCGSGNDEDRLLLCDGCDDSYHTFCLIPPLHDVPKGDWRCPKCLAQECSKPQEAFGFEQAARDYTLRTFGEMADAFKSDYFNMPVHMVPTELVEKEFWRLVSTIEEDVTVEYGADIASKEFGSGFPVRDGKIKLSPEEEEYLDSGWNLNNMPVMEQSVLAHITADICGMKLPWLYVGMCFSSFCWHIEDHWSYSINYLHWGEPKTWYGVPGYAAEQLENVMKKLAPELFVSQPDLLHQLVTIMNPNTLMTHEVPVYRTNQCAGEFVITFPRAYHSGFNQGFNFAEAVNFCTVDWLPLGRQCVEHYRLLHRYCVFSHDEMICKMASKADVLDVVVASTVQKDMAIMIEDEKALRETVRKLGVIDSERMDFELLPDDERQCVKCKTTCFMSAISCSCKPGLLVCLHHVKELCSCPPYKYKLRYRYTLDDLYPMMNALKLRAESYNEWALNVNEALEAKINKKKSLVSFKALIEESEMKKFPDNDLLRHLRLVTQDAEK
Description: Histone lysine demethylase AlphaLISA assay, KDM5B. The following applies: in vitro enzyme, read-out: KDM5B IC50 (HDME Inhibition).

A further assay concerns the target PHF8 (KDM7) (Homo sapiens, UniProt Q9UPP1). Description: Histone lysine demethylase AlphaLISA assay, PHF8. The following applies: in vitro enzyme, read-out: PHF8 IC50 (HDME Inhibition).
For a further assay, the target named is T4, KDM6A (UTX) (Homo sapiens, UniProt O15550).
T4 construct: 919-1401; host or cells: E. coli
Description: Histone lysine demethylase AlphaLISA assay, KDM6A. As to conditions: in vitro enzyme, read-out: KDM6A IC50 (HDME Inhibition).

T4 sequence (O15550 919-1401): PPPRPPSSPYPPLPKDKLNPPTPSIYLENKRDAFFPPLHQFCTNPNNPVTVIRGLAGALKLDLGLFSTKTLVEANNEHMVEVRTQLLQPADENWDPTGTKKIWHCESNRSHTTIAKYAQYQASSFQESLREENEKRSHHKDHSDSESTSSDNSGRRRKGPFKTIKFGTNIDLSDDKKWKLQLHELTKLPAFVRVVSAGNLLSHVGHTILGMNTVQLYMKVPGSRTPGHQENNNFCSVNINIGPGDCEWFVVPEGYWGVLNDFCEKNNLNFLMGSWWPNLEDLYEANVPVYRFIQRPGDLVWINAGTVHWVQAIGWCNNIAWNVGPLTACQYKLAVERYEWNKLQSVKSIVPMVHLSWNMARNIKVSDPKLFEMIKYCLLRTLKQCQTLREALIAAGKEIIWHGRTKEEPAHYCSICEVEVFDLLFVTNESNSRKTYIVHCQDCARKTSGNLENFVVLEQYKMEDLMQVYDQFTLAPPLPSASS
Sequence of PHF8 (KDM7) (Q9UPP1 whole entry): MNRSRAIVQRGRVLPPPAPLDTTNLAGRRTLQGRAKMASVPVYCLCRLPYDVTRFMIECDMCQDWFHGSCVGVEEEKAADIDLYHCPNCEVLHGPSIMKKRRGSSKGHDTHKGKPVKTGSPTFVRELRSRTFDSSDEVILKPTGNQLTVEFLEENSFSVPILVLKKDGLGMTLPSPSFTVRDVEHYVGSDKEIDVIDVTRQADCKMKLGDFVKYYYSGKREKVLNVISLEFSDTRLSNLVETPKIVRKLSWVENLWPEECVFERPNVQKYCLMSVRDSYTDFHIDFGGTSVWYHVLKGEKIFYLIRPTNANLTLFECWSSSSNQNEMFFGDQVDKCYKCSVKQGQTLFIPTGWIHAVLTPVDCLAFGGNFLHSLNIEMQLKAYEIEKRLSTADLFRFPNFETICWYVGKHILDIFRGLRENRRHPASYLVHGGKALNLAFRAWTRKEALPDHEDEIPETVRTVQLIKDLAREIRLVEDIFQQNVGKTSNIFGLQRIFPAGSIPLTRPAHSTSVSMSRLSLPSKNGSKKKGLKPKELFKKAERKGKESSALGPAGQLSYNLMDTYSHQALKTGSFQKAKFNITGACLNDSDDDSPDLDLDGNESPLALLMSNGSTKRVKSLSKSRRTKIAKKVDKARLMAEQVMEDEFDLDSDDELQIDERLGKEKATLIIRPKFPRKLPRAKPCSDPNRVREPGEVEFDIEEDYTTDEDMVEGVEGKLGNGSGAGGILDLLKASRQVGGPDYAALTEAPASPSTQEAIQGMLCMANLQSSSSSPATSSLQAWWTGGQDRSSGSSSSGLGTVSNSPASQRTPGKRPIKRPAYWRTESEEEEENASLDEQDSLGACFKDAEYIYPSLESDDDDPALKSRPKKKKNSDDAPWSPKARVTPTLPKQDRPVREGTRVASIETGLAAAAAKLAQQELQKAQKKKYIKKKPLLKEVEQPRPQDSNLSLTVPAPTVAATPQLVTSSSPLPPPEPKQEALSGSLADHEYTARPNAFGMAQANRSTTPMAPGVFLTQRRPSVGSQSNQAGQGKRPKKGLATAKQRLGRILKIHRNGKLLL

As a reminder, the IC50 is the concentration that gives 50% inhibition. Consider `COc1ccnc2c1CCC2NCc1cc(C(=O)O)ccn1` (stereo not shown) [Compound 101, 2-[({4-methoxy-5H,6H,7H-cyclopenta[b]pyridin-7-yl}amino)methyl]pyri-dine-4-carboxylic acid], for which the figures for the IC50 on KDM2B (FBXL10), on KDM4C (JMJD2C) and at KDM5B (PLU-1) were below 250 nM, 250 to 2500 nM and below 250 nM, respectively.

Take `CCN1CCC[C@@H](CNCc2cc(C(=O)O)ccn2)C1=O` [Compound 104, 2-[({[(3S)-1-ethyl-2-oxopiperidin-3-yl]methyl}amino)methyl]pyridine-4-carboxylic acid]: the IC50 is 250 to 2500 nM at KDM4C (JMJD2C), 250 to 2500 nM at PHF8 (KDM7), below 250 nM on KDM5B (PLU-1) and above 2500 nM on KDM6A (UTX).

Regarding `O=C(O)c1ccnc(CN2CCCCn3ccnc3C2)c1` [Compound 51, 2-{5H,6H,7H,8H,9H,10H-imidazo[1,2-a][1,4]diazocin-9-ylmethyl}pyridine-4-carboxylic acid], the half-maximal inhibitory concentration (IC50) on KDM4C (JMJD2C) is below 250 nM; on PHF8 (KDM7), 250 to 2500 nM; on KDM6A (UTX), above 2500 nM.

Turning to `C=CCN(CC=C)C(=O)[C@H](CC(=O)NCCCN(C)C)NCc1cc(C(=O)O)ccn1` [Compound 10, 2-({[(1S)-1-[bis(prop-2-en-1-yl)carbamoyl]-2-{[3-(dimethylamino)propyl]carbamoyl}ethyl]amino}methyl)pyridine-4-carboxylic acid], the IC50 at KDM2B (FBXL10) is above 2500 nM; at KDM4C (JMJD2C) it was above 2500 nM; at KDM5B (PLU-1), below 250 nM.

In the case of `C=CCN(CC=C)C(=O)[C@@H](CCCCN(CCC)C(=O)OC(C)(C)C)NCc1cc(C(=O)O)ccn1` [Compound 4, 2-({[(1R)-1-[bis(prop-2-en-1-yl)carbamoyl]-5-{[(tert-butoxy)carbonyl](propyl)amino}pentyl]amino}methyl)pyridine-4-carboxylic acid], the IC50 is 250 to 2500 nM at KDM2B (FBXL10), above 2500 nM at KDM4C (JMJD2C) and above 2500 nM on KDM5B (PLU-1).

Regarding `C[C@H](c1ccccc1)N1CC[C@H](CNCc2cc(C(=O)O)ccn2)C1=O` [Compound 82, 2-[({[(3R)-2-oxo-1-[(1R)-1-phenylethyl]pyrrolidin-3-yl]methyl}amino)methyl]pyridine-4-carboxylic acid], the half-maximal inhibitory concentration (IC50) is below 250 nM at KDM4C (JMJD2C), below 250 nM on KDM5B (PLU-1) and 250 to 2500 nM on KDM6A (UTX).

As for `CC(N[C@@H](C)C(=O)NCc1ccncc1)c1cc(C(=O)O)ccn1` (stereo partly drawn) [Compound 15, 2-(1-{[(1S)-1-[(pyridin-4-ylmethyl)carbamoyl]ethyl]amino}ethyl)pyri-dine-4-carboxylic acid], the 50% inhibitory concentration (IC50) at KDM4C (JMJD2C), at KDM5B (PLU-1) and on KDM6A (UTX) was above 2500 nM throughout.

With `O=C(O)c1ccnc(CN2CCCn3ccnc3C2)c1` [Compound 53, 2-{5H,6H,7H,8H,9H-imidazo[1,2-a][1,4]diazepin-8-ylmethyl}pyridine-4-carboxylic acid], the IC50 at KDM4C (JMJD2C) is 250 to 2500 nM; at PHF8 (KDM7) it was above 2500 nM; at KDM6A (UTX), above 2500 nM.

On to `O=C(O)c1ccnc(CNC2CCCc3cccnc32)c1` (stereo not shown) [Compound 94, 2-{[(5,6,7,8-tetrahydroquinolin-8-yl)amino]methyl} pyridine-4-carboxylic acid], for which the IC50 at KDM4C (JMJD2C), on KDM5B (PLU-1) and at KDM6A (UTX) was above 2500 nM each time.

For the compound `O=C(O)c1cnnc(CNCC(=O)N2CCCCC2)c1` [Compound 26, 6-({[2-oxo-2-(piperidin-1-yl)ethyl]amino}methyl) pyridazine-4-carboxylic acid], the half-maximal inhibitory concentration (IC50) on KDM4C (JMJD2C) was below 250 nM; at KDM5B (PLU-1) it was below 250 nM; at KDM6A (UTX), above 2500 nM.

In the case of `CSCC(NCC(=O)N1CCCCC1)c1cc(C(=O)O)ccn1` (stereo not shown) [Compound 42, 2-[2-(methylsulfanyl)-1-{[2-oxo-2-(piperidin-1-yl)ethyl]amino}ethyl] pyridine-4-carboxylic acid], the IC50 on KDM4C (JMJD2C), on KDM5B (PLU-1) and on KDM6A (UTX) was above 2500 nM each time.

With `O=C(O)c1ccnc(CN2CCCC[C@@H]2CC(=O)N2CCCCC2)c1` [Compound 72, 2-{[(2R)-2-[2-oxo-2-(piperidin-1-yl)ethyl]piperidin-1-yl]methyl}pyridine-4-carboxylic acid], the IC50 at KDM4C (JMJD2C), on KDM5B (PLU-1) and on KDM6A (UTX) was above 2500 nM each time.

As to `CCNC(=O)C[C@@H]1CCCCN1Cc1cc(C(=O)O)ccn1` [Compound 71, 2-{[(2S)-2-[(ethylcarbamoyl)methyl]piperidin-1-yl]methyl}pyridine-4-carboxylic acid], the IC50 at KDM4C (JMJD2C), at KDM5B (PLU-1) and at KDM6A (UTX) was above 2500 nM in each case.

As for `COc1ccc([C@@H](C)N2CC[C@H](CNCc3cc(C(=O)O)ccn3)C2=O)cc1` [Compound 79, 2-[({[(3R)-1-[(1R)-1-(4-methoxyphenyl)ethyl]-2-oxopyrrolidin-3-yl]methyl}amino)methyl]pyridine-4-carboxylic acid], the figures for the concentration for half-maximal inhibition (IC50) on KDM4C (JMJD2C), at KDM5B (PLU-1) and at KDM6A (UTX) were below 250 nM, below 250 nM and 250 to 2500 nM, respectively.

As to `C=CCN(CC=C)C(=O)[C@H](CCCCN(C)C(C)=O)NCc1cc(C(=O)O)ccn1` [Compound 21, 2-({[(1S)-1-[bis(prop-2-en-1-yl)carbamoyl]-5-(N-methylacetamido)pentyl]amino}methyl)pyri-dine-4-carboxylic acid], the half-maximal inhibitory concentration (IC50) on KDM4C (JMJD2C) is above 2500 nM; on KDM5B (PLU-1), 250 to 2500 nM; at KDM6A (UTX), above 2500 nM.

In the case of `O=C(O)c1ccnc(CNCc2nccn2C/C=C/c2ccccc2)c1` [Compound 13, 2-{[({1-[(2E)-3-phenylprop-2-en-1-yl]-1H-imidazol-2-yl}methyl)amino]methyl}pyridine-4-carboxylic acid], the IC50 on KDM4C (JMJD2C) is above 2500 nM; at KDM5B (PLU-1), below 250 nM; at KDM6A (UTX) it was above 2500 nM.
